Laboratory results from patent publication US6790992B2, “Scyphostatin analogues as SMase inhibitors” (Biofrontera Pharmaceuticals GmbH, priority 2002, dated 2004).

What was measured:
[1] = test system: sphingomyleinase activity of mmLDL-stimulated monocytes; assay: Sphingomyelinase activity in mmLDL-stimulated human monocytes; assay type: cell-based; details: compound 13 0.1-0 μm, 30 min pretreatment, then mmLDL 4 hours; average of 5 experiments; values only in FIG. 4
Protocol: Average values from 5 individual experiments.
90 nM BODIPY-FL-C5 sphingomylein (molecular probes) are dissolved in 200 μl ethanol, then injected into 10 ml PBS containing 0.75 mg/ml BSA. The solution is dialyzed extensively against PBS, the resulting dialyzate is sterile-filtered and diluted 1:1 using RPMI medium. Together with the solution a monolayer of human monocytes' is incubated with 5% CO2 at 37° C. for 4 hours, washed twice with 5 ml PBS, admixed with new medium and then incubated at the corresponding concentrations of compound (13) for 30 minutes. The pretreated cells are treated with slightly modified low-density lipoprotein (mmLDL)^10 for 4 hours and extracted according to Bligh and Dyer^11. The enzyme activity is determined by the ratio of BODIPY-FL-C5—sphingomyelin to BODIPY-FL-C5 ceramide^12.

human monocytes = assay: Antiapoptotic activity in TNFα-treated human monocytes (YOPRO-1 staining); assay type: cell-based; details: pretreatment 30 min, 0.1 μm, then TNFα 4 hours; average of 5 experiments; values only in FIG. 3
Protocol: In addition, part of the cells are pretreated with compound 13 (30 min., 0.1 μm). The percentage of apoptotic cells is determined in all of the samples by YOPRO-1 staining^10. Average values from 5 experiments.

[2] = Chemical, acid and redox stability; assay type: physicochemical
[3] = background statement, cited from earlier work

| Inhibitory effect on the sphingomyleinase activity [1] | Chemical stability (e.g. stability in acidic solutions) ([2]; epoxide-free analogues, compared with natural scyphostatin) | Stability at pH 2 ([2]; pH values of 2 at 40° C. for a period of several hours) | Structure (SMILES) | Antiapoptotic activity (percentage of apoptotic cells) (human monocytes) | Chemical and metabolic stability ([3]; natural scyphostatin) | Stability in acid ([3]; natural substance) |
| --- | --- | --- | --- | --- | --- | --- |
| Inhibitory effect | increased chemical stability | stable | CCCCCCCCCCCCCCCC(=O)N[C@H](CO)C[C@]1(O)CCC=CC1=O [compound 13, hexadecanoic acid-[1-hydroxymethyl-2-(1-hydroxy-2-oxo-cyclohex-3-enyl)ethyl]amide] | Antiapoptotic activity | – | – |
| – | – | – | CC[C@@H](C)/C=C(\C)C[C@@H](C)C[C@@H](C)/C=C/C=C/C=C/C(=O)N[C@H](CO)C[C@@]1(O)C(=O)C=C[C@@H]2O[C@@H]21 [scyphostatin] | – | chemically and metabolically very unstable | unstable in acid |
